Test results reported in patent US9394311B2, “Triazolo compounds as PDE10 inhibitors” (Hoffmann-La Roche Inc., priority 2012, dated 2016).

These compounds were tested against human PDE10A (Homo sapiens (Human), UniProt Q9Y233) (assay: human PDE10A full length Scintillation Proximity Assay (SPA)). Details: PDE10A full length enzyme, 50 nM cGMP / [3H]-cGMP substrate, 20 minutes at room temperature.
Type: biochemical
Procedure: The following test was carried out in order to determine the activity of the compounds of the present invention. PDE10 activity of the compounds of the present invention was determined using a Scintillation Proximity Assay (SPA)-based method similar to the one previously described (Fawcett, L. et al., Proc Natl Acad Sci USA (2000) 97(7):3702-3707).
The human PDE10A full length assay was performed in 96-well micro titer plates. The reaction mixture of 50 μl contained 20 mM HEPES pH=7.5/10 mM MgCl2/0.05 mg/ml BSA (Sigma cat. # A-7906), 50 nM cGMP (Sigma, cat. # G6129) and 50 nM [3H]-cGMP (GE Healthcare, cat. # TRK392 S.A. 13.2 Ci/mmol), 3.75 ng/well PDE10A enzyme (Enzo Life Science, Lausen, Switzerland cat # SE-534) with or without a specific test compound. A range of concentrations of the potential inhibitor was used to generate data for calculating the concentration of inhibitor resulting in 50% of the effect (e.g. IC50, the concentration of the competitor inhibiting PDE10A activity by 50%). Non-specific activity was tested without the enzyme. The reaction was initiated by the addition of the substrate solution (cGMP and [3H]-cGMP) and allowed to progress for 20 minutes at room temperature. The reaction was terminated by adding 25 μl of YSi-SPA scintillation beads (GE Healthcare, cat. # RPNQ0150) in 18 mM zinc sulphate solution (stop reagent). After 1 h under shaking, the plate was centrifuged one minute at 170 g to allow beads to settle. Afterwards, radioactive counts were measured on a Perkin Elmer Top-Count Scintillation plate reader.

Sequence of human PDE10A (Q9Y233 other isoform, or with tags, fused parts or gaps): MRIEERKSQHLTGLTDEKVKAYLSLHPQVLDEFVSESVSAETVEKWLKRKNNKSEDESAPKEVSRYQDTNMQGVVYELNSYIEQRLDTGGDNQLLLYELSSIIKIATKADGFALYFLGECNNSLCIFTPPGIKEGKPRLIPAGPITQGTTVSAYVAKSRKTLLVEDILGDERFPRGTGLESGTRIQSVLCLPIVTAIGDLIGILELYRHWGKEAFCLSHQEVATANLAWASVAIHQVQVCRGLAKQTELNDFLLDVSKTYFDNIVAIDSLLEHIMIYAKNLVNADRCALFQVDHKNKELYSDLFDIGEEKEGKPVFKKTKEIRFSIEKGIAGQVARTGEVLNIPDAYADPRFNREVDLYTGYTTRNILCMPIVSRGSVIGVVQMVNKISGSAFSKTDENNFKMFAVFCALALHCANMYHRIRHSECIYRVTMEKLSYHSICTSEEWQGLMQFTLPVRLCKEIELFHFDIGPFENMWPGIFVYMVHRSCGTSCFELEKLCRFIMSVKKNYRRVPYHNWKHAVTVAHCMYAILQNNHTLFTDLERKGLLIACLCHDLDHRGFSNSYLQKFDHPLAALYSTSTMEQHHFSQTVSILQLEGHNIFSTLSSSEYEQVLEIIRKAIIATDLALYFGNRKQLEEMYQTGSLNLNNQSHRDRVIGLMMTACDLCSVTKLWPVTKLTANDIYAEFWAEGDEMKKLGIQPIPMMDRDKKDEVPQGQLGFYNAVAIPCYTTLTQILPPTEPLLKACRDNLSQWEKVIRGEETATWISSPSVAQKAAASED

| IC50 | Compound |
| --- | --- |
| 10.2 nM | Cc1ccc2nc(CCc3nc(N4CCCC4)nn3C)nn2c1C [Example 40, 5,6-Dimethyl-2-(2-(1-methyl-3-(pyrrolidin-1-yl)-1H-1,2,4-triazol-5-yl)ethyl)-[1,2,4]triazolo[1,5-a]pyridine] |
| 37.3 nM | Cc1nc(C)c2nc(CCc3nc(N4CCCC4)nn3C)nn2c1C [Example 41, 5,6,8-Trimethyl-2-(2-(1-methyl-3-(pyrrolidin-1-yl)-1H-1,2,4-triazol-5-yl)ethyl)-[1,2,4]triazolo[1,5-a]pyrazine] |
| 13.6 nM | Cc1nc(C)n2nc(CCc3nc(N4CCCC4)nn3C)nc2c1C [Example 42, 5,7,8-Trimethyl-2-(2-(1-methyl-3-(pyrrolidin-1-yl)-1H-1,2,4-triazol-5-yl)ethyl)-[1,2,4]triazolo[1,5-c]pyrimidine] |
| 84.3 nM | COC1CCN(c2nc(CCc3nc4c(C)ncc(C)n4n3)n(C)n2)C1 (centres unmarked) [Example 43, 2-{2-[5-(3-Methoxy-pyrrolidin-1-yl)-2-methyl-2H-[1,2,4]triazol-3-yl]-ethyl}-5,8-dimethyl-[1,2,4]triazolo[1,5-a]pyrazine] |
| 9.41 nM | Cc1nc(C)n2nc(CCc3nc(N4CCCC4)nn3C)nc2c1Cl [Example 44, 8-Chloro-5,7-dimethyl-2-(2-(1-methyl-3-(pyrrolidin-1-yl)-1H-1,2,4-triazol-5-yl)ethyl)-[1,2,4]triazolo[1,5-c]pyrimidine] |
| 58.8 nM | Cc1cc2nc(CCc3nc(N4CCCC4)nn3C)nn2c(C)n1 [Example 45, 5,7-Dimethyl-2-(2-(1-methyl-3-(pyrrolidin-1-yl)-1H-1,2,4-triazol-5-yl)ethyl)-[1,2,4]triazolo[1,5-c]pyrimidine] |
| 4.98 nM | Cc1cc(Cl)c(C)n2nc([C@H]3C[C@@H]3c3nc(N4CCCC4)nn3C)nc12 [Example 46, 6-Chloro-5,8-dimethyl-2-[(1S,2S)-2-(2-methyl-5-pyrrolidin-1-yl-2H-[1,2,4]triazol-3-yl)-cyclopropyl]-[1,2,4]triazolo[1,5-a]pyridine] |
| 4.48 nM | CCn1nc(C#Cc2nc3c(C)ncc(C)n3n2)nc1N1CCCC1 [Example 47, 2-((1-Ethyl-5-(pyrrolidin-1-yl)-1H-1,2,4-triazol-3-yl)ethynyl)-5,8-dimethyl-[1,2,4]triazolo[1,5-a]pyrazine] |
| 28.5 nM | CCn1nc(CCc2nc3c(C)ncc(C)n3n2)nc1N1CCCC1 [Example 48, 2-(2-(1-Ethyl-5-(pyrrolidin-1-yl)-1H-1,2,4-triazol-3-yl)ethyl)-5,8-dimethyl-[1,2,4]triazolo[1,5-a]pyrazine] |
| 31.6 nM | Cc1ncc(C)n2nc(CCc3nc(N4CCCCC4)nn3C)nc12 [Example 49, 5,8-Dimethyl-2-[2-(2-methyl-5-piperidin-1-yl-2H-[1,2,4]triazol-3-yl)-ethyl]-[1,2,4]triazolo[1,5-a]pyrazine] |
| 4.9 nM | CCc1ncc(C)c2nc(CCc3nc(N4CCCC4)nn3C)nn12 [Example 50, 5-Ethyl-8-methyl-2-(2-(1-methyl-3-(pyrrolidin-1-yl)-1H-1,2,4-triazol-5-yl)ethyl)-[1,2,4]triazolo[1,5-c]pyrimidine] |
| 28.4 nM | Cc1ncc(C)n2nc(CCc3nc(N4CCCC4C)nn3C)nc12 (centres unmarked) [Example 51, 5,8-Dimethyl-2-{2-[2-methyl-5-(2-methyl-pyrrolidin-1-yl)-2H-[1,2,4]triazol-3-yl]-ethyl}-[1,2,4]triazolo[1,5-a]pyrazine] |
| 0.63 nM | Cc1c(Cl)cc(Cl)c2nc(CCc3nc(N4CCCC4)nn3C)nn12 [Example 52, 6,8-Dichloro-5-methyl-2-[2-(2-methyl-5-pyrrolidin-1-yl-2H-[1,2,4]triazol-3-yl)-ethyl]-[1,2,4]triazolo[1,5-a]pyridine] |
| 381 nM | Cn1nc(N2CCCC2)nc1CCc1nc2ccc(C#N)cn2n1 [Example 53, 2-(2-(1-Methyl-3-(pyrrolidin-1-yl)-1H-1,2,4-triazol-5-yl)ethyl)-[1,2,4]triazolo[1,5-a]pyridine-6-carbonitrile] |
| 105 nM | Cn1nc(N2CCCC2)nc1CCc1nc2c(Cl)cc(C(F)(F)F)cn2n1 [Example 54, 8-Chloro-2-(2-(1-methyl-3-(pyrrolidin-1-yl)-1H-1,2,4-triazol-5-yl)ethyl)-6-(trifluoromethyl)-[1,2,4]triazolo[1,5-a]pyridine] |
| 94.7 nM | Cc1ccn2nc(CCc3nc(N4CCCC4)nn3C)nc2c1[N+](=O)[O-] [Example 55, 7-Methyl-2-(2-(1-methyl-3-(pyrrolidin-1-yl)-1H-1,2,4-triazol-5-yl)ethyl)-8-nitro-[1,2,4]triazolo[1,5-a]pyridine] |

| IC50 | Compound |
| --- | --- |
| 29.2 nM | Cn1nc(N2CCCC2)nc1CCc1nc2ccc3ccccc3n2n1 [Example 56, 2-(2-(1-Methyl-3-(pyrrolidin-1-yl)-1H-1,2,4-triazol-5-yl)ethyl)-[1,2,4]triazolo[1,5-a]quinoline] |
| 251 nM | Cc1cncc2nc(CCc3nc(N4CCCC4)nn3C)nn12 [Example 57, 5-Methyl-2-(2-(1-methyl-3-(pyrrolidin-1-yl)-1H-1,2,4-triazol-5-yl)ethyl)-[1,2,4]triazolo[1,5-a]pyrazine] |
| 8.21 nM | Cc1cnc(C)n2nc(CCc3nc(N4CCCC4)nn3C)nc12 [Example 58, 5,8-Dimethyl-2-[2-(2-methyl-5-pyrrolidin-1-yl-2H-[1,2,4]triazol-3-yl)-ethyl]-[1,2,4]triazolo[1,5-c]pyrimidine] |
| 50.6 nM | CCN(CC)c1nc(CCc2nc3c(C)ncc(C)n3n2)n(C)n1 [Example 59, {5-[2-(5,8-Dimethyl-[1,2,4]triazolo[1,5-a]pyrazin-2-yl)-ethyl]-1-methyl-1H-[1,2,4]triazol-3-yl}-diethyl-amine] |
| 186 nM | CCN(c1nc(CCc2nc3c(C)ncc(C)n3n2)n(C)n1)C1CC1 [Example 60, Cyclopropyl-{5-[2-(5,8-dimethyl-[1,2,4]triazolo[1,5-a]pyrazin-2-yl)-ethyl]-1-methyl-1H-[1,2,4]triazol-3-yl}-ethyl-amine] |
| 0.72 nM | COc1ccc(Cn2nc(N3CCCC3)nc2CCc2nc3c(Cl)cc(Cl)c(C)n3n2)cc1 [Example 61] |
| 3.23 nM | COc1ccc(Cn2nc(CCc3nc4c(Cl)cc(Cl)c(C)n4n3)nc2N2CCCC2)cc1 [Example 62, 6,8-Dichloro-2-(2-(1-(4-methoxybenzyl)-5-(pyrrolidin-1-yl)-1H-1,2,4-triazol-3-yl)ethyl)-5-methyl-[1,2,4]triazolo[1,5-a]pyridine] |
| 32.4 nM | Cn1nc(N2CCCC2)nc1CCc1nc2cc(C(F)(F)F)c(F)c(N)n2n1 [Example 63, 6-Fluoro-2-(2-(1-methyl-3-(pyrrolidin-1-yl)-1H-1,2,4-triazol-5-yl)ethyl)-7-(trifluoromethyl)-[1,2,4]triazolo[1,5-a]pyridin-5-amine] |
| 56.6 nM | Cn1nc(N2CCCC2)nc1CCc1nc2cccc(C(F)(F)F)n2n1 [Example 64, 2-(2-(1-Methyl-3-(pyrrolidin-1-yl)-1H-1,2,4-triazol-5-yl)ethyl)-5-(trifluoromethyl)-[1,2,4]triazolo[1,5-a]pyridine] |
| 331 nM | Cn1nc(N2CCCC2)nc1CCc1nc2cc(C(F)(F)F)ccn2n1 [Example 66, 2-(2-(1-Methyl-3-(pyrrolidin-1-yl)-1H-1,2,4-triazol-5-yl)ethyl)-7-(trifluoromethyl)-[1,2,4]triazolo[1,5-a]pyridine] |
| 317 nM | Cn1nc(N2CCCC2)nc1CCc1nc2cc(C#N)ccn2n1 [Example 67, 2-(2-(1-Methyl-3-(pyrrolidin-1-yl)-1H-1,2,4-triazol-5-yl)ethyl)-[1,2,4]triazolo[1,5-a]pyridine-7-carbonitrile] |
| 0.22 nM | Cc1c(Cl)cc(Cl)c2nc(CCc3n[nH]c(N4CCCC4)n3)nn12 [Example 68, 6,8-Dichloro-5-methyl-2-[2-(5-pyrrolidin-1-yl-1H-[1,2,4]triazol-3-yl)-ethyl]-[1,2,4]triazolo[1,5-a]pyridine] |
| 0.5 nM | Cc1c(Cl)cc(C(F)(F)F)c2nc(CCc3nc(N4CCCC4)nn3C)nn12 [Example 69, 6-Chloro-5-methyl-2-[2-(2-methyl-5-pyrrolidin-1-yl-2H-[1,2,4]triazol-3-yl)-ethyl]-8-trifluoromethyl-[1,2,4]triazolo[1,5-c]pyridine] |
| 1.01 nM | Cc1c(Cl)cc(Br)c2nc(CCc3nc(N4CCCC4)nn3C)nn12 [Example 71, 8-Bromo-6-chloro-5-methyl-2-[2-(2-methyl-5-pyrrolidin-1-yl-2H-[1,2,4]triazol-3-yl)-ethyl]-[1,2,4]triazolo[1,5-a]pyridine] |
| 1.22 nM | Cc1c(Br)cc(Cl)c2nc(CCc3nc(N4CCCC4)nn3C)nn12 [Example 72, 6-Bromo-8-chloro-5-methyl-2-(2-(1-methyl-3-(pyrrolidin-1-yl)-1H-1,2,4-triazol-5-yl)ethyl)-[1,2,4]triazolo[1,5-a]pyridine] |
| 86.9 nM | Cc1c(Cl)cc(S(C)(=O)=O)c2nc(CCc3nc(N4CCCC4)nn3C)nn12 [Example 73, 6-Chloro-8-methanesulfonyl-5-methyl-2-[2-(2-methyl-5-pyrrolidin-1-yl-2H-[1,2,4]triazol-3-yl)-ethyl]-[1,2,4]triazolo[1,5-a]pyridine] |
